From US20060069132A1, “Azolecarboxamide herbicides” (priority 2004, published 2006)
Where two headings read alike, the source gives them in different places.

Key:
morningglory [1] = assay: Test A pre-/postemergence herbicide test; type: in vivo, Ipomoea spp.; settings: Ipomoea, 240 h; for pest or weed control at 500 g/ha: 500 g ai/ha; for pest or weed control at 2000 g/ha: 2000 g ai/ha
Procedure, shortened: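 Both application timings were run together: directed soil spray over freshly planted seeds in sandy loam, and runoff spray onto 2–10 cm seedlings. Evaluation after ~10 days in greenhouse used a 0–100 visual scale versus untreated controls.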

rice = assay: Test B pre-/postemergence herbicide test; type: in vivo, Oryza sativa; settings: Preemergence, 500 g ai/ha; scale 0 to 100
Procedure, shortened: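 Formulation: non-phytotoxic solvent mix with surfactant. Timing: preemergence on seed and postemergence on 2–18 cm plants, applied concurrently. Readout after 13–15 d greenhouse: visual 0–100 control rating against controls.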

bermudagrass = assay: Test C pre-/postemergence herbicide test; type: in vivo, Cynodon dactylon
Procedure, shortened: (§1)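 Emerged plants at the 1- to 4-leaf stage (2–18 cm), or freshly planted seeds, received test chemicals in a non-phytotoxic solvent mixture with surfactant. Response was visually scored against controls after 12 to 14 days in the greenhouse, on a 0 (no effect) to 100 (complete control) scale.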

giant foxtail = assay: Test C pre-/postemergence herbicide test; type: in vivo, Setaria faberi
Procedure, shortened: as §1

goosegrass = assay: Test C pre-/postemergence herbicide test; type: in vivo, Eleusine indica
Procedure, shortened: as §1

kochia = assay: Test C pre-/postemergence herbicide test; type: in vivo, Kochia scoparia
Procedure, shortened: as §1

morningglory [2] = assay: Test C pre-/postemergence herbicide test; type: in vivo, Ipomoea coccinea
Procedure, shortened: as §1

soybean = assay: Test C pre-/postemergence herbicide test; type: in vivo, Glycine max
Procedure, shortened: as §1

[3] = tested on: common (oilseed) sunflower; assay: Test C pre-/postemergence herbicide test; type: in vivo, Helianthus annuus
Procedure, shortened: as §1

[4] = tested on: smallflower umbrella sedge; assay: Test C flooded paddy test; type: in vivo, Cyperus difformis; settings: Cyperus difformis
[5] = post-emergence, Postemergence, 0 to 100 scale, 0 no effect, 100 complete control, read-out: Plant response rating, Morningglory
[6] = Preemergence, 500 g ai/ha, scale 0 to 100, 0 no effect, 100 complete control

CCn1nc(C(C)(C)C)cc1C(=O)Nc1cc(C(=O)N(C)C)ccc1F [Compound 6, N-[5-[(dimethylamino)carbonyl]-2-fluorophenyl]-3-(1,1-dimethylethyl)-1-ethyl-1H-pyrazole-5-carboxamide]
pest or weed control at 500 g/ha (morningglory [1]; [5]): 10% | pest or weed control at 2000 g/ha (morningglory [1]; [5]): 30% | pest or weed control at 500 g/ha (morningglory [1]; pre-emergence, Preemergence, visual rating, 0 to 100 scale (0 no effect, 100 complete control), read-out: Morningglory plant response rating): 45% | pest or weed control at 2000 g/ha (morningglory [1]; pre-emergence, Preemergence, 0 to 100 scale, 0 no effect, 100 complete control, read-out: Morningglory plant response rating): 80% | Rice plant response rating (rice): 100 | Plant response rating (0 = no effect, 100 = complete control), Bermudagrass (bermudagrass; 62 g ai/ha, preemergence): 80 | pest or weed control at 125 g/ha (bermudagrass; Cynodon dactylon, pre-emergence, 312 h, 125 g ai/ha, scale 0-100, read-out: Plant response rating, Bermudagrass): 90% | pest or weed control at 250 g/ha (bermudagrass; Cynodon dactylon, pre-emergence, 312 h, 250 g ai/ha, scale 0 to 100 (0 no effect, 100 complete control), visual, 12 to 14 days, read-out: Plant response rating, Bermudagrass): 90% | pest or weed control at 500 g/ha (bermudagrass; Cynodon dactylon, pre-emergence, 312 h, Preemergence, 500 g ai/ha, scale 0 to 100, 0 no effect, 100 complete control, read-out: Bermudagrass plant response rating): 90% | Plant response rating (0 = no effect, 100 = complete control), Foxtail, Giant (giant foxtail; 62 g ai/ha, preemergence): 60 | Foxtail, Giant plant response rating (giant foxtail; [6]): 100 | pest or weed control at 125 g/ha (giant foxtail; Setaria faberi, pre-emergence, 312 h, 125 g ai/ha, scale 0-100, read-out: Plant response rating, Foxtail, Giant): 80% | pest or weed control at 250 g/ha (giant foxtail; Setaria faberi, pre-emergence, 312 h, 250 g ai/ha, scale 0 to 100 (0 no effect, 100 complete control), visual, 12 to 14 days, read-out: Plant response rating, Foxtail, Giant): 85% | Plant response rating (0 = no effect, 100 = complete control), Goosegrass (goosegrass; 62 g ai/ha, preemergence): 85 | pest or weed control at 125 g/ha (goosegrass; Eleusine indica, pre-emergence, 312 h, 125 g ai/ha, scale 0-100, read-out: Plant response rating, Goosegrass): 100% | pest or weed control at 250 g/ha (goosegrass; Eleusine indica, pre-emergence, 312 h, 250 g ai/ha, scale 0 to 100 (0 no effect, 100 complete control), visual, 12 to 14 days, read-out: Plant response rating, Goosegrass): 100% | Goosegrass plant response rating (goosegrass; [6]): 100 | Plant response rating (0 = no effect, 100 = complete control), Kochia (kochia; 62 g ai/ha, preemergence): 100 | pest or weed control at 125 g/ha (kochia; Bassia scoparia, pre-emergence, 125 g ai/ha, scale 0-100, read-out: Plant response rating, Kochia): 100% | pest or weed control at 250 g/ha (kochia; Bassia scoparia, pre-emergence, 250 g ai/ha, scale 0 to 100 (0 no effect, 100 complete control), visual, 12 to 14 days, read-out: Plant response rating, Kochia): 100% | Kochia plant response rating (kochia; [6]): 100 | Plant response rating (0 = no effect, 100 = complete control), Morningglory (morningglory [2]; 62 g ai/ha, preemergence): 0 | pest or weed control at 250 g/ha (morningglory [2]; Ipomoea, pre-emergence, 250 g ai/ha, scale 0 to 100 (0 no effect, 100 complete control), visual, 12 to 14 days, read-out: Plant response rating, Morningglory): 30% | Morningglory plant response rating (morningglory [2]; [6]): 70 | Plant response rating (0 = no effect, 100 = complete control), Soybean (soybean; 62 g ai/ha, preemergence): 70 | plant injury at 250 g/ha (soybean; Glycine max, pre-emergence, 250 g ai/ha, scale 0 to 100 (0 no effect, 100 complete control), visual, 12 to 14 days, read-out: Plant response rating, Soybean): 100% | Soybean plant response rating (soybean; [6]): 100 | Plant response rating (0 = no effect, 100 = complete control), Sunflower ([3]; 62 g ai/ha, preemergence): 0 | pest or weed control at 250 g/ha ([3]; Helianthus annuus, pre-emergence, 250 g ai/ha, scale 0 to 100 (0 no effect, 100 complete control), visual, 12 to 14 days, read-out: Plant response rating, Sunflower): 100% | Sunflower plant response rating [3, 6]: 100 | pest or weed control at 62 g/ha ([4]; 62 g ai/ha, scale 0 to 100 (0 no effect, 100 complete control), read-out: Sedge, Umbrella plant response rating): 70% | pest or weed control at 125 g/ha ([4]; 125 g ai/ha, scale of 0 to 100, 0 is no effect, 100 is complete control, read-out: Sedge, Umbrella plant response rating): 90% | pest or weed control at 250 g/ha ([4]; 250 g ai/ha, visual rating after 12 to 14 days, scale 0 to 100 (0 no effect, 100 complete control), read-out: Plant response rating, Sedge, Umbrella): 90% | pest or weed control at 500 g/ha ([4]; 500 g ai/ha, visual rating after 12 to 14 days, scale 0 to 100 (0 no effect, 100 complete control), read-out: Plant response rating, Sedge, Umbrella): 90%
